Where a name gives a salt, the structure may show the parent alone. Blank lines part the entries; values can stand above or below the compound they belong to. Active and inactive are the calls of the source.
What was measured:
[1] = P. falciparum 3D7-ScDHODH growth inhibitors, dose response, SYBR Green, dry powder samples (AID 1159570); format: functional, cell-based;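 note: parasite growth measured after 72 hours of compound exposure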
[2] = A2780 ovarian cancer cell cytotoxicity, dose response, cytotoxicity control, plate reader, dry powder samples (AID 743046); format: functional, cell-based
[3] = LGR2 antagonists, dose response, cell-based, HEK293, CRE-luciferase reporter, cherry pick, set 2 (AID 743343); format: functional;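 note: transfected cells were stimulated with diluted bursicon conditioned medium after compound addition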
[4] = MC4R antagonists, dose response, counter-screen for LGR2 antagonist project, cell-based, plate reader, cherry pick (AID 743444); format: functional;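 note: transfected HEK 293 cells stimulated with alpha-MSH peptide; potency of inhibitors of the alpha-MSH evoked signal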
[5] = P. falciparum ATP4 D1247Y mutant growth inhibitors, dose response, NITD609-resistant line, SYBR Green, dry powder (AID 1159571); format: functional, cell-based;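 note: parasites synchronized at ring stage by sorbitol before testing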
Paired box protein Pax-8 = Paired box protein Pax-8 (Homo sapiens, UniProt Q06710); test: inhibitors of PAX8-driven TPO luciferase reporter, dose response, RMG-I cells, cherry-pick (AID 687027); format: functional, cell-based;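 note: luciferase reporter driven by Pax8 target thyroperoxidase promoter measured by SteadyGlo luminescence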
[6] = P. falciparum Dd2 growth inhibitors, dose response, SYBR Green, cherry-picked samples (AID 1159567); format: functional, cell-based
[7] = IGROV1 ovarian cancer cell cytotoxicity, dose response, PAX8 inhibitor project, plate reader, dry powder samples (AID 743043); format: functional, cell-based; details: IGROV-1
[8] = cytotoxicity in OVCAR8 ovarian cancer cells, dose response, PAX8 project, cell-based, plate reader, dry powder samples (AID 743197); format: functional; details: OVCAR-8
[9] = HepG2 cell cytotoxicity, dose response, cytotoxicity control, plate reader, cherry-pick, antagonist series (AID 743416); format: functional, cell-based
[10] = A549 cell cytotoxicity, dose response, cytotoxicity control, plate reader, cherry-pick, antagonist series (AID 743412); format: functional, cell-based
[11] = P. falciparum Dd2 growth inhibitors, dose response, SYBR Green, dry powder samples (AID 1159566); format: functional, cell-based;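 note: potency for growth inhibition with lower SYBR green DNA signal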
[12] = NIH:OVCAR-3 ovarian cancer cell cytotoxicity, dose response, PAX8 inhibitor project, plate reader, dry powder samples (AID 743044); format: functional, cell-based
[13] = IOSE-T80 ovarian epithelial cell cytotoxicity, dose response, cytotoxicity control for PAX8 inhibitor project, plate reader, dry powder samples (AID 743045); format: functional, cell-based
[14] = HEK293 cell cytotoxicity, dose response, cytotoxicity control, plate reader, cherry-picked samples (AID 743446); format: functional, cell-based
[15] = HepG2 cell cytotoxicity, dose response, cytotoxicity control, plate reader, dry powder samples (AID 1159569); format: functional, cell-based;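 note: inhibitor potency with signal falling toward the positive control level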
[16] = inhibitors of clade B AD8 Env fusion, dose response, cell-based, cherry-pick (AID 652062); format: functional;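 note: luciferase signal from cell-cell fusion driven by HIV-1 clade B AD8 Env; potency is for inhibitors of fusion seen as a drop in luminescence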
[17] = HIV Env cell-cell fusion inhibitors, dose response, HIV entry, plate reader, dry powder (AID 687023); format: functional, cell-based
[18] = inhibitors of HIV Env-driven cell fusion, dose response, cherry-pick (AID 652057); format: functional, cell-based
[19] = ZM109 Env clade C HIV-1 fusion inhibitors, dose response, HeLa effector, CEM target cells, luciferase, cherry-pick (AID 652058); format: functional, cell-based
[20] = Late stage results for the probe development effort to identify inhibitors of Plasmodium falciparum gametocytes: Luminescence-based cell-based high throughput dose response assay to identify inhibitors of viability of late stage Plasmodium falciparum gametocytes.; format: functional
[21] = molecular target: T1, Low molecular weight phosphotyrosine protein phosphatase (Homo sapiens, UniProt P24666); test: LMPTP phosphatase inhibitors, dose response, biochemical, OMFP substrate, fluorescence intensity, set 2 (AID 743307); format: functional
T1 sequence (P24666 whole entry): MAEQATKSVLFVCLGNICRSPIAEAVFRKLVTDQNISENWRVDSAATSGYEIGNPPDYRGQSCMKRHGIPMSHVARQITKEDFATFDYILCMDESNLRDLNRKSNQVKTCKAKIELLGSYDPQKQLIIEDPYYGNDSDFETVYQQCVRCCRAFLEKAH

[22] = molecular target: T1, Low molecular weight phosphotyrosine protein phosphatase; test: LMPTP phosphatase inhibitors, colorimetric pNPP readout, dose response, orthogonal assay, biochemical, absorbance, pNPP substrate, LMPTP-A isoform, set 2 (AID 743308); format: functional
[23] = molecular target: G-protein coupled receptor 183 (Homo sapiens, UniProt P32249); test: SAR confirmation of small molecule antagonists of the EBI2 receptor via a luminescent beta-arrestin assa.; format: functional
cells = format: functional, cell-based; details: INS-1E
[24] = Dose-response inhibition of insulin secretion in a rat insulinoma line at 5 mM glucose (AID 1117331); format: functional, cell-based; details: INS-1E

Chain of Paired box protein Pax-8 (Q06710 whole entry): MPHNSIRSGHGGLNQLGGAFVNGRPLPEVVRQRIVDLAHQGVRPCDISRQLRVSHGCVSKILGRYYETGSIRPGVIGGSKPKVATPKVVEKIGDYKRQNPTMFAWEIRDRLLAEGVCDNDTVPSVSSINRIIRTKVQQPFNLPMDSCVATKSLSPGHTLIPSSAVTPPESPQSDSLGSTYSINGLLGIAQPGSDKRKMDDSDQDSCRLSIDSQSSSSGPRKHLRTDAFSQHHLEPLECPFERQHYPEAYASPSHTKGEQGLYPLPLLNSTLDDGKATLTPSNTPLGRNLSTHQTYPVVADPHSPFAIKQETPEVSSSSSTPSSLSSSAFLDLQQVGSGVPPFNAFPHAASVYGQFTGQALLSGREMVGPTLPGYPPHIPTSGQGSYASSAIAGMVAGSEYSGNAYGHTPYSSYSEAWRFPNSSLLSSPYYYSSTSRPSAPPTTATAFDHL
Chain of G-protein coupled receptor 183 (P32249 whole entry): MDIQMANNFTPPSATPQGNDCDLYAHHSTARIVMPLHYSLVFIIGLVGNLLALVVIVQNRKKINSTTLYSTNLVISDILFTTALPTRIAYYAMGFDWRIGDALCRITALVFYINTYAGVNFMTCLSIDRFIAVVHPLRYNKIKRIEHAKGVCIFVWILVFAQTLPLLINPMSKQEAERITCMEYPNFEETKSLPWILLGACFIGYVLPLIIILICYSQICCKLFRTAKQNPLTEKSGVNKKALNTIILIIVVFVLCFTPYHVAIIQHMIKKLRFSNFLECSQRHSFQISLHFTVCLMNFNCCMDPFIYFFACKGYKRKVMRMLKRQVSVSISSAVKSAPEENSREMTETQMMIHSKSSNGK

Structure (SMILES): N#Cc1cccc(-c2ccc([C@@H]3[C@@H]4CN(C(=O)C5CC5)C[C@H]3N4)cc2)c1
AC50 [1]: 0.405 µM (active)
AC50 [2]: 9.05 µM (active)
AC50 [3]: 2.62 µM (active)
AC50 [4]: 2.49 µM (active)
AC50 [5]: 0.455 µM (active)
AC50 (Paired box protein Pax-8): 1.25 µM (active)
AC50 [6]: 0.489 µM (active)
AC50 [7]: 7.63 µM (active)
AC50 [8]: 4.43 µM (active)
AC50 [9]: 5.88 µM (active)
AC50 [10]: 1.97 µM (active)
AC50 [11]: 0.267 µM (active)
AC50 [12]: 12.2 µM (active)
AC50 [13]: 68.8 µM (active)
AC50 [14]: 13.1 µM (active)
AC50 [15]: 2.84 µM (active)

Structure (SMILES): Cc1noc(C)c1S(=O)(=O)N(C)C[C@@H]1Oc2ccc(NC(=O)Nc3ccccc3)cc2CC(=O)N([C@@H](C)CO)C[C@@H]1C
AC50 [16]: 36.9 µM (active)
AC50 [17]: 14.2 µM (active)
AC50 [18]: 19.7 µM (active)
AC50 [19]: 15.2 µM (active)

Structure (SMILES): O=C(Nc1nccs1)c1cn(-c2ccccc2)nc1-c1ccc(Cl)cc1
IC50 [20]: > 37.2 µM (inactive)

IC50 [21]: 5.72 µM (active)
IC50 [22]: 12 µM (active)
Structure (SMILES): CN(C)CCNc1cc(-c2ccccc2)nc2ccccc12

IC50 [23]: 0.00523 µM (active)
Structure (SMILES): O=C(/C=C/c1ccc(Br)cc1)N1CCN(Cc2ccc(Cl)cc2C(F)(F)F)CC1

Structure (SMILES): CN(C)CC[C@@H](c1ccc(Br)cc1)c1ccccn1 [DEXBROMPHENIRAMINE MALEATE]
IC50 (cells): 6.37 µM (inactive)
IC50 [24]: 3.76 µM (active)
